According to ChEMBL document CHEMBL1201861, “Genomics of Drug Sensitity in Cancer screening data, Wellcome Trust Sanger Institute”:

System: SW1990
Experiment: cells
Assay type: functional, cell-based
Details: Homo sapiens
Description: SANGER: Inhibition of human SW1990 cell growth in a cell viability assay.

Q: For COc1ccc(-c2cc3nccn3c(Nc3ncccc3C(N)=O)n2)cc1OC, which IC50 is on record?
A: > 8 µM

System: HuCCT-1;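 further: growth inhibition of HuCCT-1 cells, read out by a cell viability assay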
Experiment: cells
Assay type: functional, cell-based, HuCCT1
Details: Homo sapiens
Description: SANGER: Inhibition of human HuCCT1 cell growth in a cell viability assay.

Q: How did the IC50 turn out when COc1ccc(-c2cc3nccn3c(Nc3ncccc3C(N)=O)n2)cc1OC was run?
A: > 8 µM

System: MKN-45;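 further: growth inhibition of human MKN-45 cells, measured with a cell viability assay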
Experiment: cells
Assay type: functional, cell-based
Details: Homo sapiens
Description: SANGER: Inhibition of human MKN45 cell growth in a cell viability assay.

Q: How did the IC50 turn out when COc1ccc(-c2cc3nccn3c(Nc3ncccc3C(N)=O)n2)cc1OC was run?
A: > 8 µM

System: NCI-H524;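 further: growth inhibition of human NCI-H524 cells, read out through a cell viability assay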
Experiment: cells
Assay type: functional, cell-based, Homo sapiens
Details: Homo sapiens, NCI-H524
Description: SANGER: Inhibition of human NCI-H524 cell growth in a cell viability assay.

Q: COc1ccc(-c2cc3nccn3c(Nc3ncccc3C(N)=O)n2)cc1OC was tested. Which IC50 did it give?
A: > 8 µM

System: A204;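 further: growth inhibition of human A204 cells, read out with a cell viability assay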
Experiment: cells
Assay type: functional, cell-based
Details: Homo sapiens
Description: SANGER: Inhibition of human A204 cell growth in a cell viability assay.

Q: COc1ccc(-c2cc3nccn3c(Nc3ncccc3C(N)=O)n2)cc1OC was tested. Which IC50 did it give?
A: > 8 µM

System: SW1710;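 further: growth inhibition of SW1710 cells, determined with a cell viability assay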
Experiment: cells
Assay type: functional, cell-based
Details: Homo sapiens
Description: SANGER: Inhibition of human SW1710 cell growth in a cell viability assay.

Q: With COc1ccc(-c2cc3nccn3c(Nc3ncccc3C(N)=O)n2)cc1OC as the compound, how does the IC50 read?
A: 1.66 µM

System: SW626;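 further: growth inhibition of SW626 cells, measured with a cell viability assay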
Experiment: cells
Assay type: functional, cell-based
Details: Homo sapiens
Description: SANGER: Inhibition of human SW626 cell growth in a cell viability assay.

Q: For COc1ccc(-c2cc3nccn3c(Nc3ncccc3C(N)=O)n2)cc1OC, which IC50 is on record?
A: > 8 µM

System: COR-L279
Experiment: SANGER: Inhibition of human COR-L279 cell growth in a cell viability assay.
Assay type: functional, cell-based
Details: Homo sapiens, COR-L279

Q: With COc1ccc(-c2cc3nccn3c(Nc3ncccc3C(N)=O)n2)cc1OC as the compound, how does the IC50 read?
A: 4.2 µM

System: HCC1395;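 further: growth inhibition of HCC1395 cells, read out by a cell viability assay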
Experiment: cells
Assay type: functional, cell-based
Details: Homo sapiens
Description: SANGER: Inhibition of human HCC1395 cell growth in a cell viability assay.

Q: How did the IC50 turn out when COc1ccc(-c2cc3nccn3c(Nc3ncccc3C(N)=O)n2)cc1OC was run?
A: > 8 µM

System: CAL-39;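 further: cell viability assay measuring growth inhibition of CAL-39 cells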
Experiment: cells
Assay type: functional, cell-based
Details: Homo sapiens
Description: SANGER: Inhibition of human CAL-39 cell growth in a cell viability assay.

Q: For COc1ccc(-c2cc3nccn3c(Nc3ncccc3C(N)=O)n2)cc1OC, which IC50 is on record?
A: 3.57 µM

System: CHP-126
Experiment: cells
Assay type: functional, cell-based, Homo sapiens
Details: Homo sapiens, CHP-126
Description: SANGER: Inhibition of human CHP-126 cell growth in a cell viability assay.

Q: With COc1ccc(-c2cc3nccn3c(Nc3ncccc3C(N)=O)n2)cc1OC as the compound, how does the IC50 read?
A: 6.5 µM

System: U-251;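 further: growth inhibition of human U-251 cells, read out through a cell viability assay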
Experiment: cells
Assay type: functional, cell-based
Details: Homo sapiens
Description: SANGER: Inhibition of human U251 cell growth in a cell viability assay.

Q: For COc1ccc(-c2cc3nccn3c(Nc3ncccc3C(N)=O)n2)cc1OC, which IC50 is on record?
A: > 8 µM

System: NCI-H2141;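 further: growth inhibition of human NCI-H2141 cells, read out with a cell viability assay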
Experiment: cells
Assay type: functional, cell-based, Homo sapiens
Details: Homo sapiens, NCI-H2141
Description: SANGER: Inhibition of human NCI-H2141 cell growth in a cell viability assay.

Q: COc1ccc(-c2cc3nccn3c(Nc3ncccc3C(N)=O)n2)cc1OC was tested. Which IC50 did it give?
A: > 8 µM

System: HCC1954;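 further: growth inhibition of human HCC1954 cells, read out with a cell viability assay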
Experiment: cells
Assay type: functional, cell-based
Details: Homo sapiens
Description: SANGER: Inhibition of human HCC1954 cell growth in a cell viability assay.

Q: For COc1ccc(-c2cc3nccn3c(Nc3ncccc3C(N)=O)n2)cc1OC, which IC50 is on record?
A: > 8 µM

System: MDA-MB-157
Experiment: cells
Assay type: functional, cell-based
Details: Homo sapiens
Description: SANGER: Inhibition of human MDA-MB-157 cell growth in a cell viability assay.

Q: For COc1ccc(-c2cc3nccn3c(Nc3ncccc3C(N)=O)n2)cc1OC, which IC50 is on record?
A: > 8 µM

System: GAMG;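 further: cell growth inhibition measured by a viability assay in the GAMG human cell line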
Experiment: cells
Assay type: functional, cell-based
Details: Homo sapiens
Description: SANGER: Inhibition of human GAMG cell growth in a cell viability assay.

Q: How did the IC50 turn out when COc1ccc(-c2cc3nccn3c(Nc3ncccc3C(N)=O)n2)cc1OC was run?
A: > 8 µM

System: CAMA-1;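 further: growth inhibition of CAMA-1 cells, read out with a cell viability assay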
Experiment: cells
Assay type: functional, cell-based
Details: Homo sapiens
Description: SANGER: Inhibition of human CAMA-1 cell growth in a cell viability assay.

Q: With COc1ccc(-c2cc3nccn3c(Nc3ncccc3C(N)=O)n2)cc1OC as the compound, how does the IC50 read?
A: > 8 µM

System: LCLC-103H cell line
Experiment: cells
Assay type: functional, cell-based
Details: Homo sapiens
Description: SANGER: Inhibition of human LCLC-103H cell growth in a cell viability assay.

Q: Which IC50 does the source give for COc1ccc(-c2cc3nccn3c(Nc3ncccc3C(N)=O)n2)cc1OC here?
A: 3.08 µM

System: FaDu;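 further: cell viability readout of growth inhibition in FaDu cells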
Experiment: cells
Assay type: functional, cell-based
Details: Homo sapiens
Description: SANGER: Inhibition of human FADU cell growth in a cell viability assay.

Q: For COc1ccc(-c2cc3nccn3c(Nc3ncccc3C(N)=O)n2)cc1OC, which IC50 is on record?
A: > 8 µM

System: SCLC-21H;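 further: growth inhibition of cultured human SCLC-21H cells, read out with a cell viability assay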
Experiment: cells
Assay type: functional, cell-based, Homo sapiens
Details: Homo sapiens, SCLC-21H
Description: SANGER: Inhibition of human SCLC-21H cell growth in a cell viability assay.

Q: For COc1ccc(-c2cc3nccn3c(Nc3ncccc3C(N)=O)n2)cc1OC, which IC50 is on record?
A: > 8 µM

System: NCI-H1882;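 further: growth inhibition of the cell line, determined with a viability assay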
Experiment: cells
Assay type: functional, cell-based, Homo sapiens
Details: Homo sapiens, NCI-H1882
Description: SANGER: Inhibition of human NCI-H1882 cell growth in a cell viability assay.

Q: COc1ccc(-c2cc3nccn3c(Nc3ncccc3C(N)=O)n2)cc1OC was tested. Which IC50 did it give?
A: > 8 µM

System: SNU-449
Experiment: cells
Assay type: functional, cell-based
Details: Homo sapiens
Description: SANGER: Inhibition of human SNU-449 cell growth in a cell viability assay.

Q: Which IC50 does the source give for COc1ccc(-c2cc3nccn3c(Nc3ncccc3C(N)=O)n2)cc1OC here?
A: > 8 µM

System: A-427;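 further: growth inhibition of human A-427 cells, read out by a cell viability assay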
Experiment: cells
Assay type: functional, cell-based
Details: Homo sapiens
Description: SANGER: Inhibition of human A427 cell growth in a cell viability assay.

Q: COc1ccc(-c2cc3nccn3c(Nc3ncccc3C(N)=O)n2)cc1OC was tested. Which IC50 did it give?
A: 4.6 µM

System: NCI-H322M;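 further: cell viability assay measuring inhibition of growth of human NCI-H322M cells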
Experiment: cells
Assay type: functional, cell-based, Homo sapiens
Details: Homo sapiens, NCI-H322M
Description: SANGER: Inhibition of human NCI-H322M cell growth in a cell viability assay.

Q: With COc1ccc(-c2cc3nccn3c(Nc3ncccc3C(N)=O)n2)cc1OC as the compound, how does the IC50 read?
A: > 8 µM

System: NCI-H2405;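 further: growth inhibition of the human cell line, read out with a cell viability assay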
Experiment: cells
Assay type: functional, cell-based
Details: Homo sapiens
Description: SANGER: Inhibition of human NCI-H2405 cell growth in a cell viability assay.

Q: Which IC50 does the source give for COc1ccc(-c2cc3nccn3c(Nc3ncccc3C(N)=O)n2)cc1OC here?
A: > 8 µM

System: NCI-H1437;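 further: growth inhibition of human NCI-H1437 cells, read out by a cell viability assay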
Experiment: cells
Assay type: functional, cell-based
Details: Homo sapiens
Description: SANGER: Inhibition of human NCI-H1437 cell growth in a cell viability assay.

Q: How did the IC50 turn out when COc1ccc(-c2cc3nccn3c(Nc3ncccc3C(N)=O)n2)cc1OC was run?
A: 1.8 µM

System: RMG-I;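 further: growth inhibition of human RMG-I cells, read out with a cell viability assay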
Experiment: cells
Assay type: functional, cell-based
Details: Homo sapiens
Description: SANGER: Inhibition of human RMG-I cell growth in a cell viability assay.

Q: Which IC50 does the source give for COc1ccc(-c2cc3nccn3c(Nc3ncccc3C(N)=O)n2)cc1OC here?
A: > 8 µM

System: Daudi;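 further: growth inhibition of Daudi cells, read out by a viability assay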
Experiment: cells
Assay type: functional, cell-based, Homo sapiens
Details: Homo sapiens, Daudi
Description: SANGER: Inhibition of human Daudi cell growth in a cell viability assay.

Q: For COc1ccc(-c2cc3nccn3c(Nc3ncccc3C(N)=O)n2)cc1OC, which IC50 is on record?
A: 0.607 µM

System: HuP-T3;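 further: HuP-T3 cell growth inhibition, read out with a cell viability assay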
Experiment: cells
Assay type: functional, cell-based
Details: Homo sapiens
Description: SANGER: Inhibition of human HuP-T3 cell growth in a cell viability assay.

Q: With COc1ccc(-c2cc3nccn3c(Nc3ncccc3C(N)=O)n2)cc1OC as the compound, how does the IC50 read?
A: > 8 µM

System: KYSE-270;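 further: cell growth inhibition measured with a viability assay in the human KYSE-270 line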
Experiment: cells
Assay type: functional, cell-based
Details: Homo sapiens
Description: SANGER: Inhibition of human KYSE-270 cell growth in a cell viability assay.

Q: For COc1ccc(-c2cc3nccn3c(Nc3ncccc3C(N)=O)n2)cc1OC, which IC50 is on record?
A: 1.45 µM
